Reference: patent EP4722207A1, “OXOISOINDOLINYL-SUBSTITUTED TETRAHYDROPYRIMIDINEDIONE DERIVATIVE AND USE THEREOF” (Gluetacs Therapeutics (Shanghai) Co., Ltd., priority 2023, dated 2024)

Columns and labels:
Type in all cases: cell-based
Conditions in all cases: compounds at 50 nM and 500 nM, 24 hours
IKZF1 = biological target: T1, IKZF1 (Homo sapiens, UniProt Q13422+Q96SW2); assay: Western-blot assay, substrate protein degradation in hPBMCs: IKZF1
T1 construct: effects of the compounds of the present disclosure on the expression of target proteins in cells; endogenous in cells; host or cells: human PBMCs (hPBMCs)

GSPT1 = biological target: T2, GSPT1 (Homo sapiens, UniProt P15170+Q96SW2); assay: Western-blot assay, substrate protein degradation in hPBMCs: GSPT1
T2 construct: effects of the compounds of the present disclosure on the expression of target proteins in cells; endogenous in cells; host or cells: human PBMCs (hPBMCs)

WEE1 = biological target: T3, WEE1 (Homo sapiens, UniProt P30291+Q96SW2); assay: Western-blot assay, substrate protein degradation in hPBMCs: WEE1
T3 construct: effects of the compounds of the present disclosure on the expression of target proteins in cells; endogenous in cells; host or cells: human PBMCs (hPBMCs)

IKZF2 = biological target: T4, IKZF2 (Homo sapiens, UniProt Q96SW2+Q9UKS7); assay: Western-blot assay, substrate protein degradation in hPBMCs: IKZF2
T4 construct: effects of the compounds of the present disclosure on the expression of target proteins in cells; endogenous in cells; host or cells: human PBMCs (hPBMCs)

IKZF3 = biological target: T5, IKZF3 (Homo sapiens, UniProt Q96SW2+Q9UKT9); assay: Western-blot assay, substrate protein degradation in hPBMCs: IKZF3
T5 construct: effects of the compounds of the present disclosure on the expression of target proteins in cells; endogenous in cells; host or cells: human PBMCs (hPBMCs)

CK1α = biological target: T6, CK1α (Homo sapiens, UniProt P48729+Q96SW2); assay: Western-blot assay, substrate protein degradation in hPBMCs: CK1α
T6 construct: effects of the compounds of the present disclosure on the expression of target proteins in cells; endogenous in cells; host or cells: human PBMCs (hPBMCs)
T6 sequence (P48729 whole entry): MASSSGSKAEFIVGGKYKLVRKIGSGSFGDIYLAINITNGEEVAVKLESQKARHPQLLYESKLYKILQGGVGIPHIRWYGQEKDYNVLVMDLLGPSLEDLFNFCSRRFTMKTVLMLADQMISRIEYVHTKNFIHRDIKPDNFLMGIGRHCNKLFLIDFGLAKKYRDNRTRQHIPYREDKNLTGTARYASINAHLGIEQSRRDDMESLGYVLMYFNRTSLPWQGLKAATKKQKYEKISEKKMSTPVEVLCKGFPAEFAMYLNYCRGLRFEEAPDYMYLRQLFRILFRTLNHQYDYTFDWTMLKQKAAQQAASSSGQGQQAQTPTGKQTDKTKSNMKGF
T6 sequence (Q96SW2 whole entry): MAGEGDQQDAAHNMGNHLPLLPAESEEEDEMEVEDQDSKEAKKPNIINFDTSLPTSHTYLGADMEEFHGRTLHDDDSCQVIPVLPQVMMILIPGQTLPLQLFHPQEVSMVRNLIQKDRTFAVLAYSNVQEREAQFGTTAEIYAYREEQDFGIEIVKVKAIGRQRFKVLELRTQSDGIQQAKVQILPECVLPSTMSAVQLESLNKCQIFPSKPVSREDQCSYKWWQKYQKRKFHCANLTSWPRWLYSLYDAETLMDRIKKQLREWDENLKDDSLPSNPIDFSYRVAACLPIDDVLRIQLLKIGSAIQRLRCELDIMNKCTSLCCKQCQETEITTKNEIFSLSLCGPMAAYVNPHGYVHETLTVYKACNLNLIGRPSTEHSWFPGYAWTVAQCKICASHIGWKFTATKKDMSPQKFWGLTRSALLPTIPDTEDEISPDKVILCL
T6 sequence (Q16531 whole entry partner): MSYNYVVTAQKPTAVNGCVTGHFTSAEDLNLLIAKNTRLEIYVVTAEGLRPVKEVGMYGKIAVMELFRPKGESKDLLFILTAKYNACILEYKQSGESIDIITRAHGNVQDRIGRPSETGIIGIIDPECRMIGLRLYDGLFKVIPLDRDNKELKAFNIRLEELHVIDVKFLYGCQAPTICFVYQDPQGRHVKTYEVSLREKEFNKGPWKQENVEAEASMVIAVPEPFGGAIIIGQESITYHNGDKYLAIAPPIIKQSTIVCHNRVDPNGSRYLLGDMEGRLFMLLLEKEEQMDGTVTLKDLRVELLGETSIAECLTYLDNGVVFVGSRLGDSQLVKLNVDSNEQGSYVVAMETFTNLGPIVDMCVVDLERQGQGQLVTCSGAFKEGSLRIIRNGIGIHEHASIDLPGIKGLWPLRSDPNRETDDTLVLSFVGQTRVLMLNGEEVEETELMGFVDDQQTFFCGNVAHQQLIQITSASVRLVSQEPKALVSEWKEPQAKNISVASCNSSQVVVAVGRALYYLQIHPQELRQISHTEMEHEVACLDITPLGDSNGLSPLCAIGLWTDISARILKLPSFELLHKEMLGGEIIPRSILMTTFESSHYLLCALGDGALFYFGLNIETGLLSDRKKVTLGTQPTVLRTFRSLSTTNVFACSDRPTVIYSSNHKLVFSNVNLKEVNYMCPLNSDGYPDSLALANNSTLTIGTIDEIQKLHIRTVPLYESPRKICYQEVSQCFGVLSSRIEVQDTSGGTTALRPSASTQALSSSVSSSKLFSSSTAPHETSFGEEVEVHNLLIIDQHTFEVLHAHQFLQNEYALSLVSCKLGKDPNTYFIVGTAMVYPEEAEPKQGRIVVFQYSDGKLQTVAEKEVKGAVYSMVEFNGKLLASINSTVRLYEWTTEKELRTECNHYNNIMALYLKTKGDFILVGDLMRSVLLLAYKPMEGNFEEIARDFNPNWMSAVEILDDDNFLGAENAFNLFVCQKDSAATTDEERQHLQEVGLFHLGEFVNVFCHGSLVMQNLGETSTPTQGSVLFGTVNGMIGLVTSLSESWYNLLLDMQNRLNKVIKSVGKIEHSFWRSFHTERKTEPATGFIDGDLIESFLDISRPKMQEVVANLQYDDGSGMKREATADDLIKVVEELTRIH

T5 sequence (Q9UKT9 whole entry): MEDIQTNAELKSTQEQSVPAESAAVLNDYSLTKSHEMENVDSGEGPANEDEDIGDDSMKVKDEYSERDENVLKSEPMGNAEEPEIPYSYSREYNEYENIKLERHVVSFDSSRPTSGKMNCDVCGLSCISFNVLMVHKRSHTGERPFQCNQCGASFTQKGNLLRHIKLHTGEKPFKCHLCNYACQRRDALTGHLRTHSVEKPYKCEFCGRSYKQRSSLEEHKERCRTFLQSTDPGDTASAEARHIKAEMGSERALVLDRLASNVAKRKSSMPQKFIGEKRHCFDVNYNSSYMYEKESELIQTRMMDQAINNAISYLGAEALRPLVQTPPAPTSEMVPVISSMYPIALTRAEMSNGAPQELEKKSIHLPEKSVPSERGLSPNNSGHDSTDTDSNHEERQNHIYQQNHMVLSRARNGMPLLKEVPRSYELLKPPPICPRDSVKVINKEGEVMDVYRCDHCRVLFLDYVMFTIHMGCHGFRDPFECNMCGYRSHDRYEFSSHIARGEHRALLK
T5 sequence (Q96SW2 whole entry): as the sequence (Q96SW2 whole entry) above
T5 sequence (Q16531 whole entry partner): as the sequence (Q16531 whole entry partner) above
T4 sequence (Q9UKS7 whole entry): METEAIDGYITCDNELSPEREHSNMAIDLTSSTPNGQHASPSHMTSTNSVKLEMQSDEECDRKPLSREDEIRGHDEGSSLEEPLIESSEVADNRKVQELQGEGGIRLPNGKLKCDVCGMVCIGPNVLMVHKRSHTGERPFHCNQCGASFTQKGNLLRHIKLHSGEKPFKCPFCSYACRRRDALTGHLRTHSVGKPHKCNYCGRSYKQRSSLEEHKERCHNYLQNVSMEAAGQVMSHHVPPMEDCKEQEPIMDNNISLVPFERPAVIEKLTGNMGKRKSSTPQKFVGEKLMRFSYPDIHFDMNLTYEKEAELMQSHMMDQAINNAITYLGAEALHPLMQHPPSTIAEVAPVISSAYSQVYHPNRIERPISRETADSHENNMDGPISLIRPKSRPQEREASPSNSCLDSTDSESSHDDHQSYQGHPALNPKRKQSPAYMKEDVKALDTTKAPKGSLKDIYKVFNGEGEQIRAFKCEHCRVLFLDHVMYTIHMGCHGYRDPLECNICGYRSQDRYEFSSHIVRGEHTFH
T4 sequence (Q96SW2 whole entry): as the sequence (Q96SW2 whole entry) above
T4 sequence (Q16531 whole entry partner): as the sequence (Q16531 whole entry partner) above
T2 sequence (P15170 whole entry): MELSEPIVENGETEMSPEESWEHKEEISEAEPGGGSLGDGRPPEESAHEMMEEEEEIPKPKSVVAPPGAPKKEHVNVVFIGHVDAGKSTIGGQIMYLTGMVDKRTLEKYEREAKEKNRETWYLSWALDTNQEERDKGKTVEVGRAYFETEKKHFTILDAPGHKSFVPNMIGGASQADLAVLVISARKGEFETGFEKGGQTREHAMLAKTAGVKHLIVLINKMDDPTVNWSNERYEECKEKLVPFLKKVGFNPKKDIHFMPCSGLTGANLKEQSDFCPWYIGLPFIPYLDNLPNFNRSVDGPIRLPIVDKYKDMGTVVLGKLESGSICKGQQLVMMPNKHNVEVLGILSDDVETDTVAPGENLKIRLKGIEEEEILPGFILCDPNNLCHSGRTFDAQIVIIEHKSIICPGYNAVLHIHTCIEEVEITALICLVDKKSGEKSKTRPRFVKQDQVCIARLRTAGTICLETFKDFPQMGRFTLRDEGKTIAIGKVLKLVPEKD
T2 sequence (Q96SW2 whole entry): as the sequence (Q96SW2 whole entry) above
T2 sequence (Q16531 whole entry partner): as the sequence (Q16531 whole entry partner) above
T3 sequence (P30291 whole entry): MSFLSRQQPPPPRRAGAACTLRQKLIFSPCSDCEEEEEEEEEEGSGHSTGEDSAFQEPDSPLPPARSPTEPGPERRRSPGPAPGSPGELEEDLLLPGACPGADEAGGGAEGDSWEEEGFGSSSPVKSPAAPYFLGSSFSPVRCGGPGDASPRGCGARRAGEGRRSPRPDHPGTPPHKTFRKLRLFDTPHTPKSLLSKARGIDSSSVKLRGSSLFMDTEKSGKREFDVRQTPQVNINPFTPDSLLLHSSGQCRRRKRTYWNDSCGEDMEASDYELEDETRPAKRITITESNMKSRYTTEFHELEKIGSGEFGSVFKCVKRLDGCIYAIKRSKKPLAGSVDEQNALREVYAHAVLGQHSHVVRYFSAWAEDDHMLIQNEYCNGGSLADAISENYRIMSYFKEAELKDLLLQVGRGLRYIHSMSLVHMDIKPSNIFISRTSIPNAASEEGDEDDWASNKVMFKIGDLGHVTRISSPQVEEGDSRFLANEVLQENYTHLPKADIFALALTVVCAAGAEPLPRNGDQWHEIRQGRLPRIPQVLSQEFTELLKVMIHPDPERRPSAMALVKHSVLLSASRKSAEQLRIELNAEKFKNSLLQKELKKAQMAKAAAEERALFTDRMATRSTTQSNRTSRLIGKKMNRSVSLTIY
T3 sequence (Q96SW2 whole entry): as the sequence (Q96SW2 whole entry) above
T3 sequence (Q16531 whole entry partner): as the sequence (Q16531 whole entry partner) above

| Compound | IKZF1 substrate protein remaining % (IKZF1) | GSPT1 substrate protein remaining % (GSPT1) | WEE1 substrate protein remaining % (WEE1) | IKZF2 substrate protein remaining % (IKZF2) | IKZF3 substrate protein remaining % (IKZF3) | CK1α substrate protein remaining % (CK1α) |
| --- | --- | --- | --- | --- | --- | --- |
| O=C1CCN(N2C(=O)c3ccc(CN4CCN(C(c5ccc(Cl)cc5)c5ccc(Cl)cc5)CC4)cc3C2=O)C(=O)N1 [GT-05269, 5-((4-(bis(4-chlorophenyl)methyl)piperazin-1-yl)methyl)-2-(2,4-dioxotetrahydropyrimidin-1(2H)-yl)isoindoline-1,3-dione] | B ("B" is defined as 80%< substrate protein remaining %≤ 100%) | A ("A" is defined as 0% ≤ substrate protein remaining % ≤ 80%) | B ("B" is defined as 80%< substrate protein remaining %≤ 100%) | B ("B" is defined as 80%< substrate protein remaining %≤ 100%) | B ("B" is defined as 80%< substrate protein remaining %≤ 100%) | A ("A" is defined as 0% ≤ substrate protein remaining % ≤ 80%) |
| Cc1nc(C2CCN(Cc3ccc4c(c3)C(=O)N(N3CCC(=O)NC3=O)C4=O)CC2)c2ccsc2n1 [GT-05272, 2-(2,4-dioxotetrahydropyrimidin-1(2H)-yl)-5-((4-(2-methylthieno[2,3-d]pyrimidin-4-yl)piperidin-1-yl)methyl)isoindoline-1,3-dione] | B ("B" is defined as 80%< substrate protein remaining %≤ 100%) | B ("B" is defined as 80%< substrate protein remaining %≤ 100%) | B ("B" is defined as 80%< substrate protein remaining %≤ 100%) | A ("A" is defined as 0% ≤ substrate protein remaining % ≤ 80%) | B ("B" is defined as 80%< substrate protein remaining %≤ 100%) | B ("B" is defined as 80%< substrate protein remaining %≤ 100%) |
| Cc1sc2ncnc(C3=CCN(Cc4ccc5c(c4)C(=O)N(N4CCC(=O)NC4=O)C5=O)CC3)c2c1C [GT-05273, 5-((4-(5,6-dimethylthieno[2,3-d]pyrimidin-4-yl)-3,6-dihydropyridin-1(2H)-yl)methyl)-2-(2,4-dioxotetrahydropyrimidin-1(2H)-yl)isoindoline-1,3-dione] | B ("B" is defined as 80%< substrate protein remaining %≤ 100%) | B ("B" is defined as 80%< substrate protein remaining %≤ 100%) | B ("B" is defined as 80%< substrate protein remaining %≤ 100%) | A ("A" is defined as 0% ≤ substrate protein remaining % ≤ 80%) | B ("B" is defined as 80%< substrate protein remaining %≤ 100%) | B ("B" is defined as 80%< substrate protein remaining %≤ 100%) |
| Cn1cc(C2=CCN(Cc3ccc4c(c3)C(=O)N(N3CCC(=O)NC3=O)C4=O)CC2)c2ccc(F)cc21 [GT-05276, 2-(2,4-dioxotetrahydropyrimidin-1(2H)-yl)-5-((4-(6-fluoro-1-methyl-1H-indol-3-yl)-3,6-dihydropyridin-1(2H)-yl)methyl)isoindoline-1,3-dione] | B ("B" is defined as 80%< substrate protein remaining %≤ 100%) | A ("A" is defined as 0% ≤ substrate protein remaining % ≤ 80%) | B ("B" is defined as 80%< substrate protein remaining %≤ 100%) | B ("B" is defined as 80%< substrate protein remaining %≤ 100%) | A ("A" is defined as 0% ≤ substrate protein remaining % ≤ 80%) | B ("B" is defined as 80%< substrate protein remaining %≤ 100%) |
| Cc1ccc(N2CCN(Cc3ccc4c(c3)C(=O)N(N3CCC(=O)NC3=O)C4=O)CC2)s1 [GT-05309, 2-(2,4-dioxotetrahydropyrimidin-1(2H)-yl)-5-((4-(5-methylthiophen-2-yl)piperazin-1-yl)methyl)isoindoline-1,3-dione] | B ("B" is defined as 80%< substrate protein remaining %≤ 100%) | A ("A" is defined as 0% ≤ substrate protein remaining % ≤ 80%) | B ("B" is defined as 80%< substrate protein remaining %≤ 100%) | B ("B" is defined as 80%< substrate protein remaining %≤ 100%) | B ("B" is defined as 80%< substrate protein remaining %≤ 100%) | B ("B" is defined as 80%< substrate protein remaining %≤ 100%) |
| Cc1ccc(C2=CCN(Cc3ccc4c(c3)C(=O)N(N3CCC(=O)NC3=O)C4=O)CC2)s1 [GT-05310, 2-(2,4-dioxotetrahydropyrimidin-1(2H)-yl)-5-((4-(5-methylthiophen-2-yl)-3,6-dihydropyridin-1(2H)-yl)methyl)isoindoline-1,3-dione] | B ("B" is defined as 80%< substrate protein remaining %≤ 100%) | A ("A" is defined as 0% ≤ substrate protein remaining % ≤ 80%) | B ("B" is defined as 80%< substrate protein remaining %≤ 100%) | B ("B" is defined as 80%< substrate protein remaining %≤ 100%) | B ("B" is defined as 80%< substrate protein remaining %≤ 100%) | B ("B" is defined as 80%< substrate protein remaining %≤ 100%) |
| O=C1CCN(N2C(=O)c3ccc(CN4CCN(c5ccsc5)CC4)cc3C2=O)C(=O)N1 [GT-05313, 2-(2,4-dioxotetrahydropyrimidin-1(2H)-yl)-5-((4-(thiophen-3-yl)piperazin-1-yl)methyl)isoindoline-1,3-dione] | B ("B" is defined as 80%< substrate protein remaining %≤ 100%) | A ("A" is defined as 0% ≤ substrate protein remaining % ≤ 80%) | B ("B" is defined as 80%< substrate protein remaining %≤ 100%) | B ("B" is defined as 80%< substrate protein remaining %≤ 100%) | B ("B" is defined as 80%< substrate protein remaining %≤ 100%) | B ("B" is defined as 80%< substrate protein remaining %≤ 100%) |
| Cc1cscc1C1CCN(Cc2ccc3c(c2)C(=O)N(N2CCC(=O)NC2=O)C3=O)CC1 [GT-05314, 2-(2,4-dioxotetrahydropyrimidin-1(2H)-yl)-5-((4-(4-methylthiophen-3-yl)piperidin-1-yl)methyl)isoindoline-1,3-dione] | B ("B" is defined as 80%< substrate protein remaining %≤ 100%) | A ("A" is defined as 0% ≤ substrate protein remaining % ≤ 80%) | B ("B" is defined as 80%< substrate protein remaining %≤ 100%) | B ("B" is defined as 80%< substrate protein remaining %≤ 100%) | B ("B" is defined as 80%< substrate protein remaining %≤ 100%) | B ("B" is defined as 80%< substrate protein remaining %≤ 100%) |
| O=C1CCN(N2C(=O)c3ccc(CN4CCC(c5ccco5)CC4)cc3C2=O)C(=O)N1 [GT-05315, 2-(2,4-dioxotetrahydropyrimidin-1(2H)-yl)-5-((4-(furan-2-yl)piperidin-1-yl)methyl)isoindoline-1,3-dione] | B ("B" is defined as 80%< substrate protein remaining %≤ 100%) | A ("A" is defined as 0% ≤ substrate protein remaining % ≤ 80%) | B ("B" is defined as 80%< substrate protein remaining %≤ 100%) | B ("B" is defined as 80%< substrate protein remaining %≤ 100%) | B ("B" is defined as 80%< substrate protein remaining %≤ 100%) | B ("B" is defined as 80%< substrate protein remaining %≤ 100%) |
| Cc1cscc1C1=CCN(Cc2ccc3c(c2)C(=O)N(N2CCC(=O)NC2=O)C3=O)CC1 [GT-05316, 2-(2,4-dioxotetrahydropyrimidin-1(2H)-yl)-5-((4-(4-methylthiophen-3-yl)-3,6-dihydropyridin-1(2H)-yl)methyl)isoindoline-1,3-dione] | B ("B" is defined as 80%< substrate protein remaining %≤ 100%) | A ("A" is defined as 0% ≤ substrate protein remaining % ≤ 80%) | B ("B" is defined as 80%< substrate protein remaining %≤ 100%) | B ("B" is defined as 80%< substrate protein remaining %≤ 100%) | B ("B" is defined as 80%< substrate protein remaining %≤ 100%) | B ("B" is defined as 80%< substrate protein remaining %≤ 100%) |
| O=C1CCN(N2C(=O)c3ccc(CN4CC=C(c5ccco5)CC4)cc3C2=O)C(=O)N1 [GT-05317, 2-(2,4-dioxotetrahydropyrimidin-1(2H)-yl)-5-((4-(furan-2-yl)-3,6-dihydropyridin-1(2H)-yl)methyl)isoindoline-1,3-dione] | B ("B" is defined as 80%< substrate protein remaining %≤ 100%) | A ("A" is defined as 0% ≤ substrate protein remaining % ≤ 80%) | B ("B" is defined as 80%< substrate protein remaining %≤ 100%) | B ("B" is defined as 80%< substrate protein remaining %≤ 100%) | B ("B" is defined as 80%< substrate protein remaining %≤ 100%) | B ("B" is defined as 80%< substrate protein remaining %≤ 100%) |
